Data: patent US8895559B2, “Quinoxalines derivatives and pharmaceutical compositions and kits” (Merck Patent GmbH, priority 2010, dated 2014)

How the values were obtained:
[1] = tested on: PI3K; experiment: Cellular testing of PI3K inhibitors: P-S473-PKB Luminex assay in PC3 cells; type: cell-based
Procedure: Description of the Method for the Cellular Testing of PI3K Inhibitors
The cellular assay for determination of the P-S473-PKB level is carried out as a Luminex assay in 96-well format in PC3 cells.
PC3 cells are sown out with 20,000 cells per well in 100 μl medium (45% RPMI1460/45% Ham's F12/10% FCS) and incubated on the following day for 30 min with a serial dilution of the test substance (7 concentrations) under serum-free conditions. […] The lysates are incubated overnight at 4° C. with shaking with Luminex beads to which an anti-total PKB antibody is coupled. The detection is carried out on the following day by addition of a P-S473-PKB antibody and a species-specific PE-labelled secondary antibody. The detection of P-S473-PKB is carried out by measurement in a Luminex 100 instrument by determination of 100 events per cavity in a measurement time of 60 sec. […] The values of the preparations treated with test substance are calculated from this as percent of control, and IC50 values are determined by means of RS1.

[2] = target: CK2 protein kinase (Homo sapiens, UniProt P68400); settings: cited from earlier work
[3] = tested on: phospholipases; settings: cited from earlier work
[4] = tested on: neutrophils; settings: cited from earlier work
[5] = tested on: neutrophils; settings: treatment of neutrophils; Thelen et al. 1994; cited from earlier work
[6] = PI3K-dependent phosphorylation of PKB at Serin 473 in PC3 cells

Sequence of CK2 protein kinase (P68400 whole entry): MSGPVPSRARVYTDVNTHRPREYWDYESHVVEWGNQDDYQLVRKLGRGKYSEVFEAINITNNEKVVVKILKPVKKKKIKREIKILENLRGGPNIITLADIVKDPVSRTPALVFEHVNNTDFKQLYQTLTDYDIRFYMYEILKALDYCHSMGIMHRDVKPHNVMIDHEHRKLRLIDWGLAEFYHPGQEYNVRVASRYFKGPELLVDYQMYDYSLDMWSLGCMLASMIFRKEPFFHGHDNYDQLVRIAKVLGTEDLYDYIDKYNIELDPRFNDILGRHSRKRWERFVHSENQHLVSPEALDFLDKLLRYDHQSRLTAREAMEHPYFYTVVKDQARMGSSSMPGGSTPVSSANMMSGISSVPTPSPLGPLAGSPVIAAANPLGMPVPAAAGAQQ

| SMILES | IC50 ([1]; PI3 kinase inhibition, cell) | further results |
| --- | --- | --- |
| COc1cc(Nc2nc3ccccc3nc2NS(=O)(=O)c2ccn(C(F)(F)C(=O)N(C)C)n2)c(OCCC(C)O)c(OC)c1 (stereo not shown) [Compound A118, 2,2-difluoro-2-(3-{3-[2-(3-hydroxybutoxy)-3,5-dimethoxy-phenylamino]-quinoxalin-2-ylsulfamoyl}pyrazol-1-yl)-N,N-dimethylacetamide] | 100 to 10000 nM |  |
| COc1cc(Nc2nc3ccccc3nc2NS(=O)(=O)c2ccn(CCN(C)C)n2)c(OCCC(C)O)c(OC)c1 (stereo not shown) [Compound A129, 1-(2-Dimethylaminoethyl)-1H-pyrazole-3-sulfonic acid {3-[2-(3-hydroxybutoxy)-3,5-dimethoxy-phenylamino]quinoxalin-2-yl} amide] | 1 to 100 nM |  |
| O=c1cc(N2CCOCC2)oc2c(-c3ccccc3)cccc12 [LY294002] |  | IC50 [2]: 5000 to 10000 nM; inhibitory activity on phospholipases [3]: slight inhibitory activity; neutrophil migration [4]: block; superoxide release [4]: block |
| COc1cc(Nc2nc3ccccc3nc2NS(=O)(=O)c2cn(C)c(CN(C)C)n2)c(OCCC(C)O)c(OC)c1 (stereo not shown) [drawing 153] |  | IC50 [1, 6]: 4.6 nM |
| COc1cc(Nc2nc3ccccc3nc2NS(C)(=O)=O)c(OCCC(C)O)c(OC)c1 (stereo not shown) [drawing 155] |  | IC50 [1, 6]: 38 nM |
| COc1cc(Nc2nc3ccccc3nc2NS(=O)(=O)C2CCS(=O)(=O)C2)c(OCCCO)c(OC)c1 (stereo not shown) [drawing 157] |  | IC50 [1, 6]: 53 nM |
| COc1cc(Nc2nc3ccccc3nc2NS(=O)(=O)c2ccc(F)cc2)c(OCCOCCO)c(OC)c1 [drawing 159] |  | IC50 [1, 6]: 1.4 nM |
| COc1cc(Nc2nc3ccccc3nc2NS(=O)(=O)c2cn(C)cn2)c(OCCS(C)(=O)=O)c(OC)c1 [drawing 161] |  | IC50 [1, 6]: 86 nM |
| COc1cc(Nc2nc3ccccc3nc2NS(=O)(=O)c2cn(C)cn2)c(OCCCO)c(OC)c1 [drawing 163] |  | IC50 [1, 6]: 96 nM |
| COc1ccc(CCCO)c(Nc2nc3ccccc3nc2NS(=O)(=O)c2cn(C)cn2)c1 [reference compound] |  | IC50 [1, 6]: 370 nM |
| COc1ccc(CCCO)c(Nc2nc3ccccc3nc2NS(=O)(=O)c2cn(C)c(CN(C)C)n2)c1 [reference compound] |  | IC50 [1, 6]: 1100 nM |
| COc1ccc(CCO)c(Nc2nc3ccccc3nc2NS(C)(=O)=O)c1 [reference compound] |  | IC50 [1, 6]: 4900 nM |
| COc1ccc(CCCO)c(Nc2nc3ccccc3nc2NS(=O)(=O)C2CCS(=O)(=O)C2)c1 (stereo not shown) [reference compound] |  | IC50 [1, 6]: 970 nM |
| COc1ccc(CCO)c(Nc2nc3ccccc3nc2NS(=O)(=O)c2ccc(F)cc2)c1 [reference compound] |  | IC50 [1, 6]: 290 nM |
| COc1ccc(CCCS(C)(=O)=O)c(Nc2nc3ccccc3nc2NS(=O)(=O)c2cn(C)cn2)c1 [reference compound] |  | IC50 [1, 6]: 2600 nM |
| COc1cc(Nc2nc3ccccc3nc2NS(=O)(=O)c2cn(C)cn2)cc(OC)c1 [reference compound] |  | IC50 [1, 6]: 985 nM |
| COC[C@H]1OC(=O)c2coc3c2[C@@]1(C)C1=C(C3=O)[C@@H]2CCC(=O)[C@@]2(C)C[C@H]1OC(C)=O [wortmannin] |  | fMLP-induced respiratory burst response [5]: prevents; neutrophil migration [4]: block; superoxide release [4]: block |

More lines, main results first:

| IC50 ([1]; PI3 kinase inhibition, cell) | SMILES | further results |
| --- | --- | --- |
| 1 to 100 nM | COc1cc(Nc2nc3ccccc3nc2NS(=O)(=O)N(C)C)c(OCCCO)c(OC)c1 [Compound A104] |  |
| 100 to 10000 nM | COc1cc(Nc2nc3ccccc3nc2NS(=O)(=O)c2cccc(C(=O)NCC(F)(F)F)c2)c(OCCCO)c(OC)c1 [Compound A105] |  |
| 1 to 100 nM | COc1cc(Nc2nc3ccccc3nc2NS(=O)(=O)c2ccc(CN)cc2)c(OCCCO)c(OC)c1 [Compound A106, 4-aminomethyl-N-{3-[2-(3-hydroxypropoxy)-3,5-dimethoxy-phenylamino]-quinoxalin-2-yl}benzenesulfonamide] |  |
| 100 to 10000 nM | COc1cc(Nc2nc3ccccc3nc2NS(=O)(=O)c2cccc(C(=O)N3CC(F)(F)C3)c2)c(OCCCO)c(OC)c1 [Compound A107] |  |
| 100 to 10000 nM | COc1cc(Nc2nc3ccccc3nc2NS(=O)(=O)c2cccc(C(=O)N3CCC3)c2)c(OCCCO)c(OC)c1 [Compound A108] |  |
| 1 to 100 nM | COc1cc(Nc2nc3ccccc3nc2NS(=O)(=O)c2cccc(CN(C)C)c2)c(OCCCO)c(OC)c1 [Compound A109, 3-Dimethylaminomethyl-N-{3-[2-(3-hydroxy-propoxy)-3,5-dimethoxyphenylamino]quinoxalin-2-yl}benzenesulfonamide] |  |
| 1 to 100 nM | COc1cc(Nc2nc3ccccc3nc2NS(=O)(=O)c2ccc(CN3CC(F)(F)C3)cc2)c(OCCCO)c(OC)c1 [Compound A110, 4-(3,3-Difluoroazetidin-1-ylmethyl)-N-{3-[2-(3-hydroxypropoxy)-3,5-dimethoxyphenylamino]-quinoxalin-2-yl}benzenesulfonamide] |  |
| 100 to 10000 nM | COc1cc(Nc2nc3ccccc3nc2NS(=O)(=O)c2ccc(CN3CCC3)cc2)c(OCCCO)c(OC)c1 [Compound A111, 4-Azetidin-1-ylmethyl-N-{3-[2-(3-hydroxypropoxy)-3,5-dimethoxyphenylamino]-quinoxalin-2-yl}-benzenesulfonamide] |  |
| 100 to 10000 nM | COc1cc(Nc2nc3ccccc3nc2NS(=O)(=O)c2ccn(C)n2)c(OCCOCCO)c(OC)c1 [Compound A112] |  |
| 100 to 10000 nM | COc1cc(Nc2nc3ccccc3nc2NS(=O)(=O)c2cn(C)c(CN(C)C)n2)c(OCCCCO)c(OC)c1 [Compound A113] |  |
| 100 to 10000 nM | COc1cc(Nc2nc3ccccc3nc2NS(=O)(=O)C(F)F)c(OCCCO)c(OC)c1 [Compound A114] |  |
| 1 to 100 nM | COc1cc(Nc2nc3ccccc3nc2NS(=O)(=O)C(F)F)c(OCCC(C)O)c(OC)c1 (stereo not shown) [Compound A115] |  |
| 1 to 100 nM | COc1cc(Nc2nc3ccccc3nc2NS(=O)(=O)c2cccc(CN3CCC3)c2)c(OCCCO)c(OC)c1 [Compound A116, 3-Azetidin-1-ylmethyl-N-{3-[2-(3-hydroxypropoxy)-3,5-dimethoxyphenylamino]-quinoxalin-2-yl}-benzenesulfonamide] |  |
| 1 to 100 nM | COc1cc(Nc2nc3ccccc3nc2NS(=O)(=O)c2ccn(C)n2)c(CCCCO)c(OC)c1 [Compound A117] |  |
| 100 to 10000 nM | COc1cc(Nc2nc3ccccc3nc2NS(=O)(=O)c2ccn(C(F)(F)C(=O)N(C)C)n2)c(OCCCO)c(OC)c1 [Compound A119] |  |
| 1 to 100 nM | COc1cc(Nc2nc3ccccc3nc2NS(=O)(=O)c2ccn(CC(=O)N(C)C)n2)c(OCCC(C)O)c(OC)c1 (stereo not shown) [Compound A120] |  |
| 1 to 100 nM | COc1cc(Nc2nc3ccccc3nc2NS(=O)(=O)c2ccn(C)n2)c(OC)c(OC)c1 [Compound A121] |  |
| 1 to 100 nM | COc1cc(Nc2nc3ccccc3nc2NS(=O)(=O)c2ccn(CC(=O)N(C)C)n2)c(OCCCO)c(OC)c1 [Compound A122] |  |
| 100 to 10000 nM | CCN(CC)Cc1nc(S(=O)(=O)Nc2nc3ccccc3nc2Nc2cc(OC)cc(OC)c2OCCC(C)O)cn1C (stereo not shown) [Compound A123] |  |
| 100 to 10000 nM | COc1cc(Nc2nc3ccccc3nc2NS(=O)(=O)c2cn(C)cn2)c2c(c1)OC(CO)CO2 (stereo not shown) [Compound A124] |  |
| 1 to 100 nM | COc1cc(Nc2nc3ccccc3nc2NS(=O)(=O)c2ccn(C)n2)c(OCCC(C)(C)O)c(OC)c1 [Compound A125] |  |
| 100 to 10000 nM | CCN(CC)Cc1nc(S(=O)(=O)Nc2nc3ccccc3nc2Nc2cc(OC)cc(OC)c2OCCCO)cn1C [Compound A126] |  |
| 100 to 10000 nM | COc1cc(Nc2nc3ccccc3nc2NS(=O)(=O)c2cn(C)cn2)c2c(c1)OCC(CO)O2 (stereo not shown) [Compound A127] |  |
| 100 to 10000 nM | COc1cc(Nc2nc3ccccc3nc2NS(=O)(=O)c2cn(C)c(CN(C)C)n2)c(OCCC(C)(C)O)c(OC)c1 [Compound A128] |  |
| 1 to 100 nM | COc1cc(Nc2nc3ccccc3nc2NS(=O)(=O)c2ccn(CCN(C)C)n2)c(OCCCO)c(OC)c1 [Compound A130, 1-(2-Dimethylaminoethyl)-1H-pyrazole-3-sulfonic acid {3-[2-(3-hydroxypropoxy)-3,5-dimethoxy-phenylamino]quinoxalin-2-yl} amide] |  |
| 1 to 100 nM | COc1cc(Nc2nc3ccccc3nc2NS(=O)(=O)c2ccn(CC(=O)N(C)C)n2)c(OC)c(OC)c1 [Compound A131] |  |
| 1 to 100 nM | COc1cc(Nc2nc3ccccc3nc2NS(=O)(=O)c2ccc(CNC(C)=O)cc2)c(OCCCO)c(OC)c1 [Compound A132, N-(4-{3-[2-(3-hydroxypropoxy)-3,5-dimethoxyphenylamino]quinoxalin-2-ylsulfamoyl}benzyl)acetamide] |  |
